Laboratory results from patent publication US10039753B2, “Imidazo[4,5-c]quinoline and imidazo[4,5-c][1,5]naphthyridine derivatives as LRRK2 inhibitors” (Pfizer Inc., priority 2015, dated 2018).
Values belong to the molecule of their own block, whether it stands above or below them.

Assays:
[1] = molecular target: T1, GST-tagged truncated LRRK2 (Homo sapiens, UniProt Q5S007); test: LRRK2 Assay, Format 1 (Lantha Screen), WT; format: biochemical
T1 construct: GST-tagged truncated LRRK2 from Invitrogen (Cat # PV4874); GST; purchased Invitrogen PV4874
How it was run: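 Kinase activity measured by TR-FRET: GST-tagged truncated LRRK2 (4 μg/mL working solution) reacted with fluorescein-labeled LRRKtide (ERM-based peptide) across a compound dose response for 2 h at room temperature. Reaction stopped with EDTA-containing detection buffer (20 mM Tris pH 7.6) holding 2 nM terbium anti-phospho-ERM antibody.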

mutant G2019S LRRK2 [2] = molecular target: T2, mutant G2019S LRRK2 (Homo sapiens, UniProt Q5S007, G2019S); test: LRRK2 Assay, Format 1 (Lantha Screen), G2019S mutant
[3] = system: kinase selectivity mini-panel; test: Kinase selectivity (mini-panel), further assay run, Table 5A; format: biochemical; details: 1 mM ATP, 1 μM drug concentration; for percent inhibition of ABL: kinase ABL; for percent inhibition of AKT: kinase AKT; for percent inhibition of AURA: kinase AURA; for percent inhibition of BTK: kinase BTK; for percent inhibition of CDK2_CyclinA: kinase CDK2_CyclinA; for percent inhibition of CHK1: kinase CHK1; for percent inhibition of CHK2: kinase CHK2; for percent inhibition of CKIIa′: kinase CKIIa′; for percent inhibition of CKIa: kinase CKIa; for percent inhibition of CaMKIIa: kinase CaMKIIa; for percent inhibition of EGFR: kinase EGFR; for percent inhibition of ERK2: kinase ERK2; for percent inhibition of EphA2: kinase EphA2; for percent inhibition of FGFR1: kinase FGFR1; for percent inhibition of GSK3b: kinase GSK3b; for percent inhibition of HGFR: kinase HGFR; for percent inhibition of IRAK4: kinase IRAK4; for percent inhibition of IRK: kinase IRK; for percent inhibition of JAK3: kinase JAK3; for percent inhibition of KDR (VEGF): kinase KDR (VEGF); for percent inhibition of LCK: kinase LCK; for percent inhibition of MARK1: kinase MARK1; for percent inhibition of MK2: kinase MK2; for percent inhibition of MLCK_sk: kinase MLCK_sk; for percent inhibition of MST2: kinase MST2; for percent inhibition of MST4: kinase MST4; for percent inhibition of PAK4: kinase PAK4; for percent inhibition of PDK1: kinase PDK1; for percent inhibition of PIM2: kinase PIM2; for percent inhibition of PKACa: kinase PKACa; for percent inhibition of PRKCB2: kinase PRKCB2; for percent inhibition of ROCKI: kinase ROCKI; for percent inhibition of SGK: kinase SGK; for percent inhibition of SRC: kinase SRC; for percent inhibition of TAO2: kinase TAO2; for percent inhibition of TIE2: kinase TIE2; for percent inhibition of TRKA: kinase TRKA; for percent inhibition of ZC1 (HGK): kinase ZC1 (HGK); for percent inhibition of p38: kinase p38
Method: The compounds were run using a commercially available kinase selectivity assay which is available from CarnaBio USA, Inc. 209 West Central St., Suite 307, Natick, Mass. 01760 USA. The compounds of Examples 3, 4, 5 and 22 were run in the assay at a concentration of 1 μM using an ATP concentration of 1 mM.

[4] = molecular target: T1, GST-tagged truncated LRRK2; test: LRRK2 Assay, Format 2 (Lantha Screen), WT; format: biochemical
mutant G2019S LRRK2 [5] = molecular target: T2, mutant G2019S LRRK2; test: LRRK2 Assay, Format 2 (Lantha Screen), G2019S mutant; format: biochemical; set-up: purchased Invitrogen PV4881
[6] = Format 1, wild-type LRRK2, geometric mean of 2-4 determinations unless footnoted (a: ≥5 determinations; b: single determination; c: determined on trifluoroacetate salt)
[7] = geometric mean of 2-4 determinations unless otherwise indicated
[8] = geometric mean of 2-4 determinations unless otherwise indicated (a: >=5; b: single determination)
[9] = geometric mean of 2-4 determinations unless otherwise indicated (a: >=5; b: single determination), read-out: LRRK2, Format 2 G2019S IC50

T1 sequence (Q5S007 970-2527 limits assumed): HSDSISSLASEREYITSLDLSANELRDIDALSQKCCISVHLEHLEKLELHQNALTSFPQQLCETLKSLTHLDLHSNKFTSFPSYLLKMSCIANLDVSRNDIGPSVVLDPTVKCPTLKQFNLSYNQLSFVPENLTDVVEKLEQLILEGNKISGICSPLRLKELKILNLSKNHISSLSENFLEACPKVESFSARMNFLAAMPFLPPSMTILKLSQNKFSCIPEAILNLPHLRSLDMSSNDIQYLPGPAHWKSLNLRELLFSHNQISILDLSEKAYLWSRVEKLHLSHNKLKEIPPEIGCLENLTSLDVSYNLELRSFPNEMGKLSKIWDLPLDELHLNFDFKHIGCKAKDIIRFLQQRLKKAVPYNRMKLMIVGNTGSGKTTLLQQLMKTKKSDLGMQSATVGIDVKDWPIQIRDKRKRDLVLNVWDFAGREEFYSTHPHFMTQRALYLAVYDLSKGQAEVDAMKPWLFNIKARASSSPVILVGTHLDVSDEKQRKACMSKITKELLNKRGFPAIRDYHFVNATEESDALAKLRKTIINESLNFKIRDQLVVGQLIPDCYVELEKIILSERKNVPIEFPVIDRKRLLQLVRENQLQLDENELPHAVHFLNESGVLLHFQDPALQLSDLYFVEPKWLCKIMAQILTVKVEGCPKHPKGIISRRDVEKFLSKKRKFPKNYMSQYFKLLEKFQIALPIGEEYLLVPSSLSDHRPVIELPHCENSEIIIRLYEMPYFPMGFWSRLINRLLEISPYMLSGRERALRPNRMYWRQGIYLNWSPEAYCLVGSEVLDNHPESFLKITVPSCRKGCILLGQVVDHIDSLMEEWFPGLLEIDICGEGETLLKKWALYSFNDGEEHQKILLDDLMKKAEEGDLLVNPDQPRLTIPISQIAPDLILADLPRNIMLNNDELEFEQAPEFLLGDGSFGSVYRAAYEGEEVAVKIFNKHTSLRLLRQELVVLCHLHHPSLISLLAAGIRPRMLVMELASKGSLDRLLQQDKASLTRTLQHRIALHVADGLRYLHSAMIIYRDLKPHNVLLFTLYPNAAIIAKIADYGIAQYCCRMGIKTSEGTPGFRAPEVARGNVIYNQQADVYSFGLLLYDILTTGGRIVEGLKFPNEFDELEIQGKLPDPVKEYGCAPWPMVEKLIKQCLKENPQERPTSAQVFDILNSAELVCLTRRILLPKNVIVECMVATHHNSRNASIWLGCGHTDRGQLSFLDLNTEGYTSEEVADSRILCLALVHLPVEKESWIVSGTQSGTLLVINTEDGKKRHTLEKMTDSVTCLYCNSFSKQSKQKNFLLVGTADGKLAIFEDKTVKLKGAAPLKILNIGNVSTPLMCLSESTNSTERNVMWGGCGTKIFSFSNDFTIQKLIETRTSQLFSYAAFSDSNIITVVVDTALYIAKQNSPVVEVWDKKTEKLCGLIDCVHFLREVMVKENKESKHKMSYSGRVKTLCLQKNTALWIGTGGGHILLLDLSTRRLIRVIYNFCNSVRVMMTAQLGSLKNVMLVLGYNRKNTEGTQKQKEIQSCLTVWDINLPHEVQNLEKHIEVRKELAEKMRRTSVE
T2 sequence (Q5S007 970-2527 G2019S limits assumed): as the sequence (Q5S007 970-2527 limits assumed) above, with G1050S counted along it

Compound: Cc1cn(Cc2nc3cnc4ccc(Cl)cc4c3n2[C@@H]2CCO[C@H](C)C2)nn1 [Example 11, 8-Chloro-1-[(2R,4R)-2-methyltetrahydro-2H-pyran-4-yl]-2-[(4-methyl-1H-1,2,3-triazol-1-yl)methyl]-1H-imidazo[4,5-c]quinoline]
IC50 [1, 6]: 3.4 nM
IC50 (mutant G2019S LRRK2 [2]): 2.6 nM
percent inhibition of ABL [3]: 5.06%
percent inhibition of AKT [3]: 2.25%
percent inhibition of AURA [3]: 9.46%
percent inhibition of BTK [3]: 1.63%
percent inhibition of CDK2_CyclinA [3]: 10.91%
percent inhibition of CHK1 [3]: 9.08%
percent inhibition of CHK2 [3]: 4.45%
percent inhibition of CKIIa′ [3]: 3.12%
percent inhibition of CKIa [3]: 10.68%
percent inhibition of CaMKIIa [3]: 3.76%
percent inhibition of EGFR [3]: 2.76%
percent inhibition of ERK2 [3]: 4.69%
percent inhibition of EphA2 [3]: 0.7%
percent inhibition of FGFR1 [3]: 21.95%
percent inhibition of GSK3b [3]: 3.91%
percent inhibition of HGFR [3]: −3.76%
percent inhibition of IRAK4 [3]: 4.95%
percent inhibition of IRK [3]: 0.67%
percent inhibition of JAK3 [3]: −0.46%
percent inhibition of KDR (VEGF) [3]: 29%
percent inhibition of LCK [3]: 9.31%
percent inhibition of MARK1 [3]: 1.52%
percent inhibition of MK2 [3]: −1.14%
percent inhibition of MLCK_sk [3]: 4.74%
percent inhibition of MST2 [3]: 23.23%
percent inhibition of MST4 [3]: 10.29%
percent inhibition of PAK4 [3]: 4.23%
percent inhibition of PDK1 [3]: 8.16%
percent inhibition of PIM2 [3]: 4.47%
percent inhibition of PKACa [3]: 5.23%
percent inhibition of PRKCB2 [3]: −0.76%
percent inhibition of ROCKI [3]: 6.94%
percent inhibition of SGK [3]: 4.89%
percent inhibition of SRC [3]: 1.86%
percent inhibition of TAO2 [3]: 5.98%
percent inhibition of TIE2 [3]: 5.85%
percent inhibition of TRKA [3]: 13.01%
percent inhibition of ZC1 (HGK) [3]: 2.87%
percent inhibition of p38 [3]: 7.19%

Compound: Cc1cc(Cc2nc3cnc4ccc(Cl)cc4c3n2[C@@H]2CCO[C@H](CC#N)C2)no1 (single isomer, unassigned; ent-1) [Example 134, [cis-4-{8-chloro-2-[(5-methyl-1,2-oxazol-3-yl)methyl]-1H-imidazo[4,5-c]quinolin-1-yl}tetrahydro-2H-pyran-2-yl]acetonitrile, ENT-1]
IC50 [1, 7]: 3.48 nM
IC50 [4, 8]: 7.68 nM
IC50 (mutant G2019S LRRK2 [5]; [9]): 7.78 nM
IC50 (mutant G2019S LRRK2 [2]): 3.78 nM

Compound: Cc1nc(Cc2nc3cnc4ccc(Cl)cc4c3n2[C@@H]2CCO[C@H](C)C2)no1 [Example 5, 8-Chloro-2-[(5-methyl-1,2,4-oxadiazol-3-yl)methyl]-1-[(2R,4R)-2-methyltetrahydro-2H-pyran-4-yl]-1H-imidazo[4,5-c]quinoline]
IC50 [1, 6]: 4.6 nM
IC50 (mutant G2019S LRRK2 [2]): 2.7 nM
percent inhibition of ABL [3]: 1.3%
percent inhibition of AKT [3]: −3.11%
percent inhibition of AURA [3]: −0.59%
percent inhibition of BTK [3]: −1.9%
percent inhibition of CDK2_CyclinA [3]: 3.76%
percent inhibition of CHK1 [3]: 4.68%
percent inhibition of CHK2 [3]: 2.05%
percent inhibition of CKIIa′ [3]: 5.19%
percent inhibition of CKIa [3]: 8.85%
percent inhibition of CaMKIIa [3]: 1.1%
percent inhibition of EGFR [3]: −0.51%
percent inhibition of ERK2 [3]: 2.62%
percent inhibition of EphA2 [3]: 0.13%
percent inhibition of FGFR1 [3]: 12.6%
percent inhibition of GSK3b [3]: 3.4%
percent inhibition of HGFR [3]: −7.71%
percent inhibition of IRAK4 [3]: 1.85%
percent inhibition of IRK [3]: 1.53%
percent inhibition of JAK3 [3]: −0.03%
percent inhibition of KDR (VEGF) [3]: 15.08%
percent inhibition of LCK [3]: 17.19%
percent inhibition of MARK1 [3]: 3.46%
percent inhibition of MK2 [3]: −3.62%
percent inhibition of MLCK_sk [3]: 3.8%
percent inhibition of MST2 [3]: 14.89%
percent inhibition of MST4 [3]: 8.04%
percent inhibition of PAK4 [3]: −0.05%
percent inhibition of PDK1 [3]: 0.39%
percent inhibition of PIM2 [3]: −3.78%
percent inhibition of PKACa [3]: −8.79%
percent inhibition of PRKCB2 [3]: 9.78%
percent inhibition of ROCKI [3]: 0.07%
percent inhibition of SGK [3]: −0.06%
percent inhibition of SRC [3]: 2.47%
percent inhibition of TAO2 [3]: 0.55%
percent inhibition of TIE2 [3]: 2.53%
percent inhibition of TRKA [3]: 12.31%
percent inhibition of ZC1 (HGK) [3]: −0.79%
percent inhibition of p38 [3]: 5.64%

Compound: Cc1cc(Cc2nc3cnc4ccc(Cl)cc4c3n2[C@@H]2CCO[C@H](C)C2)no1 [Example 4, 8-Chloro-2-[(5-methyl-1,2-oxazol-3-yl)methyl]-1-[(2R,4R)-2-methyltetrahydro-2H-pyran-4-yl]-1H-imidazo[4,5-c]quinoline]
IC50 [1, 6]: 8.3 nM
IC50 (mutant G2019S LRRK2 [2]): 4.9 nM
percent inhibition of ABL [3]: −2.51%
percent inhibition of AKT [3]: 1.03%
percent inhibition of AURA [3]: 7.17%
percent inhibition of BTK [3]: 0.22%
percent inhibition of CDK2_CyclinA [3]: 8.08%
percent inhibition of CHK1 [3]: 8.15%
percent inhibition of CHK2 [3]: 2.72%
percent inhibition of CKIIa′ [3]: 4.36%
percent inhibition of CKIa [3]: 18.22%
percent inhibition of CaMKIIa [3]: 7.62%
percent inhibition of EGFR [3]: 3.07%
percent inhibition of ERK2 [3]: 4.54%
percent inhibition of EphA2 [3]: 0.85%
percent inhibition of FGFR1 [3]: 20.35%
percent inhibition of GSK3b [3]: 4.45%
percent inhibition of HGFR [3]: −5.99%
percent inhibition of IRAK4 [3]: 3.88%
percent inhibition of IRK [3]: 2.83%
percent inhibition of JAK3 [3]: −1.51%
percent inhibition of KDR (VEGF) [3]: 14.24%
percent inhibition of LCK [3]: 15.63%
percent inhibition of MARK1 [3]: 1.48%
percent inhibition of MK2 [3]: 3.04%
percent inhibition of MLCK_sk [3]: 3.07%
percent inhibition of MST2 [3]: 16.25%
percent inhibition of MST4 [3]: 1.29%
percent inhibition of PAK4 [3]: 3.85%
percent inhibition of PDK1 [3]: 4.87%
percent inhibition of PIM2 [3]: −0.54%
percent inhibition of PKACa [3]: −0.89%
percent inhibition of PRKCB2 [3]: 4.71%
percent inhibition of ROCKI [3]: 1.89%
percent inhibition of SGK [3]: 1.58%
percent inhibition of SRC [3]: 4.66%
percent inhibition of TAO2 [3]: 0.82%
percent inhibition of TIE2 [3]: 4.72%
percent inhibition of TRKA [3]: 11.84%
percent inhibition of ZC1 (HGK) [3]: −3.58%
percent inhibition of p38 [3]: 9.62%

Compound: Cc1nc(Cc2nc3cnc4ccc(Cl)cc4c3n2C2C[C@@H](C)[C@@H](F)C2)no1 (single isomer, unassigned) [Example 136]
IC50 [1, 7]: 30.1 nM
IC50 [4, 8]: 12 nM
IC50 (mutant G2019S LRRK2 [5]; [9]): 13 nM
IC50 (mutant G2019S LRRK2 [2]): 24.7 nM

Now from value to molecule:

IC50 [1, 7]: 17.1 nM
IC50 [4, 8]: 5.2 nM
IC50 (mutant G2019S LRRK2 [5]; [9]): 5.35 nM
IC50 (mutant G2019S LRRK2 [2]): 15.9 nM
Compound: CC(C)c1cc(Cc2nc3cnc4ccc(Br)cc4c3n2[C@@H]2CCO[C@H](C)C2)no1 [Example 171, 8-bromo-1-[(2R,4R)-2-methyltetrahydro-2H-pyran-4-yl]-2-{[5-(propan-2-yl)-1,2-oxazol-3-yl]methyl}-1H-imidazo[4,5-c]quinoline]

IC50 ([1]; 100 nM LRRKtide, 50 μM ATP, 1.7 μg/mL LRRK2 enzyme, two hours at room temperature): 156 nM
IC50 ([4]; 100 nM LRRKtide, 1000 mM ATP (so in the source), 30 minutes at room temperature): 63.2 nM
IC50 (mutant G2019S LRRK2 [5]; 100 nM LRRKtide, 1000 mM ATP (so in the source), 30 minutes at room temperature, read-out: LRRK2, Format 2 G2019S mutant IC50): 69.2 nM
IC50 (mutant G2019S LRRK2 [2]): 105 nM
Compound: Cc1nc(Cc2nc3cnc4ccc(Cl)cc4c3n2C2C[C@@H](C)[C@@H](F)C2)no1 (mixture of isomers) [diastereomer of Example 136, 8-chloro-1-[rel-(3S,4R)-3-fluoro-4-methylcyclopentyl]-2-[(5-methyl-1,2,4-oxadiazol-3-yl)methyl]-1H-imidazo[4,5-c]quinoline, DIAST-2]
